These results are taken from patent publication US8481731B2, “Compounds, pharmaceutical composition and methods relating thereto” (Boehringer Ingelheim International GmbH, priority 2009, dated 2013).

Marks after values point to notes of the source that are not given here.

One assay concerns the target T1, human GPR119 receptor (Homo sapiens, UniProt Q8TDV5, S329A/T327A).
T1 construct: N-terminal leader […]; expressed in transfected cells
T1 sequence (Q8TDV5 with tags, fused parts or gaps T327A/S329A): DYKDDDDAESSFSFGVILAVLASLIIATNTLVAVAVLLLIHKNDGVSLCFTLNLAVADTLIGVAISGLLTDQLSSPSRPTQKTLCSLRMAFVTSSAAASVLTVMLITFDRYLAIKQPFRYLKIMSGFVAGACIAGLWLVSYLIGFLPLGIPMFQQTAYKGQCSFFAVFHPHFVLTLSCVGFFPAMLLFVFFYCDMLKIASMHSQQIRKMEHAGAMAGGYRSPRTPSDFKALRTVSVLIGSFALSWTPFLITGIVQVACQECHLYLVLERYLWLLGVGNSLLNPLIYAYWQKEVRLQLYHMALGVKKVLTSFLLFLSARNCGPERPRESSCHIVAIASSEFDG
As to the kind of experiment: cAMP assay (LANCE cAMP-384 Kit), cAMP accumulation in HEK293 cells stably expressing mutant human GPR119 receptor. Conditions: cAMP accumulation; HEK293 cells stably expressing a mutant form of the human GPR119 receptor; 20 min at 37° C. It is filed as cell-based. As for the experimental part:
Quantitative detection of cAMP accumulation from cells expressing human GPR119 receptor was achieved using Perkin Elmer's LANCE cAMP-384 Kit (Cat#AD0264) according to the manufacturer's protocol. Briefly, HEK293 cells stably expressing a mutant form of the human GPR119 receptor (Methionine 1 replaced with the amino acid sequence […], and T327 & S329 changed to alanines) were grown to 50-70% confluency in cell culture media (DMEM, 10% heat inactivated Fetal Bovine Serum, 50 I.U./mL penicillin, 50 μg/mL streptomycin, 10 mM HEPES, 20 μg/mL G418 Sulfate). On the day of the assay, GPR119 stable HEK293 cells were lifted from the tissue culture plate and 1000 cells/well were incubated along with various concentrations of test compounds for 20 min at 37° C. Detection Buffer (50 mM HEPES, 10 mM calcium chloride, 0.35% Triton X-100, 1 mg/mL BSA) containing cAMP-specific antibody was then added to all wells and allowed to equilibrate in the dark for 10 minutes at room temperature. Upon equilibration, Detection Buffer containing europium-labeled cAMP tracer complex was added to all wells and allowed to react for 1 hour at room temperature. After 1 hour, bound europium-labeled cAMP tracer was measured using a Perkin Elmer ViewLux. The quantity of cAMP generated in each well was derived from a standard curve.
For some compounds for which no EC50 value could be determined, the efficacy is provided at a single concentration (10 μM) yielding % stimulation values.
For orientation: EC50 means the concentration giving half of the maximal effect. Low readings indicate greater potency, high ones weaker potency. `CC(C)OC(=O)N1CCC(Oc2cc(N3CCc4cc(S(C)(=O)=O)ccc43)ncn2)CC1` [Compound 4-1, 4-[6-(5-Methanesulfonyl-2,3-dihydro-indol-1-yl)-pyrimidin-4-yloxy]-piperidine-1-carboxylic acid isopropyl ester] had a concentration for a half-maximal effect (EC50) of 33 nM.

For the molecule `CC(C)COC(=O)N1CCC(Oc2cc(N3CCc4cc(S(C)(=O)=O)ccc43)ncn2)CC1` [Compound 4-2], it took 42 nM to reach a half-maximal effect (EC50).

Molecule `CS(=O)(=O)c1ccc2c(c1)CCN2c1cc(OC2CCN(C(=O)OC3CCC3)CC2)ncn1` [Compound 5-1, 4-[6-(5-Methanesulfonyl-2,3-dihydro-indol-1-yl)-pyrimidin-4-yloxy]-piperidine-1-carboxylic acid cyclobutyl ester] displayed a concentration giving a half-maximal response (EC50) of 24 nM.

The molecule `CS(=O)(=O)c1ccc2c(c1)CCN2c1cc(OC2CCN(C(=O)OCC3CC3)CC2)ncn1` [Compound 5-2] yielded an EC50 of 23 nM.

`CCC(C)OC(=O)N1CCC(Oc2cc(N3CCc4cc(S(C)(=O)=O)ccc43)ncn2)CC1` (stereo not shown) [Compound 5-3] had an EC50 of 35 nM.

`COCC(C)OC(=O)N1CCC(Oc2cc(N3CCc4cc(S(C)(=O)=O)ccc43)ncn2)CC1` (stereo not shown) [Compound 5-4] had an EC50 of 100 nM.

With `CS(=O)(=O)c1ccc2c(c1)CCN2c1cc(OC2CCN(C(=O)OC(CF)CF)CC2)ncn1` [Compound 5-5], it took 242 nM to reach a half-maximal effect (EC50).

Turning to `CC(C)OC(=O)N1CCC(Nc2cc(N3CCc4cc(S(C)(=O)=O)ccc43)ncn2)CC1` [Compound 6-1, 4-[6-(5-Methanesulfonyl-2,3-dihydro-indol-1-yl)-pyrimidin-4-ylamino]-piperidine-1-carboxylic acid isopropyl ester], the response was half-maximal at 611 nM (EC50).

Consider `CC(C)OC(=O)N1CCC(N(C)c2cc(N3CCc4cc(S(C)(=O)=O)ccc43)ncn2)CC1` [Compound 7-1, 4-[6-(5-Methanesulfonyl-2,3-dihydro-indol-1-yl)-pyrimidin-4-yl-methylamino]-piperidine-1-carboxylic acid isopropyl ester], for which the response was half-maximal at 69 nM (EC50).

In turn, `COc1c(OC2CCN(C(=O)OC(C)C)CC2)ncnc1N1CCc2cc(S(C)(=O)=O)ccc21` [Compound 8-1, 4-[6-(5-Methanesulfonyl-2,3-dihydro-indol-1-yl)-5-methoxy-pyrimidin-4-yloxy]-piperidine-1-carboxylic acid isopropyl ester] returned an EC50 of 201 nM.

Take `Cc1c(OC2CCN(C(=O)OC(C)C)CC2)ncnc1N1CCc2ncccc21` [Compound 9-2, 4-[6-(2,3-Dihydro-pyrrolo[3,2-b]pyridin-1-yl)-5-methyl-pyrimidin-4-yloxy]-piperidine-1-carboxylic acid isopropyl ester]: it took 312 nM to reach a half-maximal effect (EC50).

The molecule `CC(C)OC(=O)N1CCC(Oc2ccnc(N3CCc4cc(S(C)(=O)=O)ccc43)c2)CC1` [Compound 10-1, 4-[2-(5-Methanesulfonyl-2,3-dihydro-indol-1-yl)-pyridin-4-yloxy]-piperidine-1-carboxylic acid isopropyl ester] came in with a concentration for a half-maximal effect (EC50) of 588 nM.

The molecule `CC(C)(C)OC(=O)N1CCC(Oc2ncnc(N3CCc4cc(S(C)(=O)=O)ccc43)c2F)CC1` [Compound 13-1, 4-[5-Fluoro-6-(5-methanesulfonyl-2,3-dihydro-indol-1-yl)-pyrimidin-4-yloxy]-piperidine-1-carboxylic acid tert-butyl ester] had a concentration for a half-maximal effect (EC50) of 382 nM.

Consider `CN(c1cc(N2CCc3cc(S(C)(=O)=O)ccc32)ncn1)C1CCN(C(=O)OC(C)(C)C)CC1` [Compound 16-1, 4-{[6-(5-Methanesulfonyl-2,3-dihydro-indol-1-yl)-pyrimidin-4-yl]-methyl-amino}-piperidine-1-carboxylic acid tert-butyl ester], for which the response was half-maximal at 51 nM (EC50).

Turning to `CCN(c1cc(N2CCc3cc(S(C)(=O)=O)ccc32)ncn1)C1CCN(C(=O)OC(C)(C)C)CC1` [Compound 16-2], the EC50 turned out to be 29 nM.

Molecule `COCN(c1cc(N2CCc3cc(S(C)(=O)=O)ccc32)ncn1)C1CCN(C(=O)OC(C)(C)C)CC1` [Compound 16-3] showed a 50% effective concentration (EC50) of 906 nM.

In the case of `CCC(C)N(c1cc(N2CCc3cc(S(C)(=O)=O)ccc32)ncn1)C1CCN(C(=O)OC(C)(C)C)CC1` (stereo not shown) [Compound 16-4], the response was half-maximal at 95 nM (EC50).

Take `C=CCN(c1cc(N2CCc3cc(S(C)(=O)=O)ccc32)ncn1)C1CCN(C(=O)OC(C)(C)C)CC1` [Compound 16-5]: the response was half-maximal at 23 nM (EC50).

On to `CC(C)(C)OC(=O)N1CCC(Oc2cc(N3CCc4nc(Cl)ccc43)ncn2)CC1` [Compound 20-1, 4-[6-(5-Chloro-2,3-dihydro-pyrrolo[3,2-b]pyridin-1-yl)-pyrimidin-4-yloxy]-piperidine-1-carboxylic acid tert-butyl ester], for which it took 751 nM to reach a half-maximal effect (EC50).

For the molecule `CS(=O)(=O)c1ccc2c(c1)CCN2c1cc(OC2CCN(C(=O)OC3CCN(Cc4cccc(F)c4)C3)CC2)ncn1` (stereo not shown) [Compound 21-2], it took 278 nM to reach a half-maximal effect (EC50).

In turn, `CS(=O)(=O)c1ccc2c(c1)CCN2c1cc(OC2CCN(C(=O)OC3CCN(Cc4ccc(F)cc4)C3)CC2)ncn1` (stereo not shown) [Compound 21-3] registered an EC50 of 335 nM.

Consider `CS(=O)(=O)c1ccc2c(c1)CCN2c1cc(OC2CCN(C(=O)OC3CCN(Cc4cccc(F)c4F)C3)CC2)ncn1` (stereo not shown) [Compound 21-4], for which the EC50 came out at 343 nM.

`CS(=O)(=O)c1ccc2c(c1)CCN2c1cc(OC2CCN(C(=O)OC3CCN(Cc4cc(F)cc(F)c4)C3)CC2)ncn1` (stereo not shown) [Compound 21-5] had a half-maximal effective concentration (EC50) of 308 nM.

The same assay, now with this note: single concentration 10 μM; given where no EC50 value could be determined; HEK293 cells expressing mutant human GPR119.
Consider `CC(C)(C)OC(=O)N1CC(Oc2cc(N3CCc4cc(S(C)(=O)=O)ccc43)ncn2)C1` [Compound 15-1, 3-[6-(5-Methanesulfonyl-2,3-dihydro-indol-1-yl)-pyrimidin-4-yloxy]-azetidine-1-carboxylic acid tert-butyl ester], for which the “% stimulation at 10 μM” value is 22%.

As for `CC(C)(C)OC(=O)N1CC[C@@H](Oc2cc(N3CCc4cc(S(C)(=O)=O)ccc43)ncn2)C1` [Compound 15-2, (R)-3-[6-(5-Methanesulfonyl-2,3-dihydro-indol-1-yl)-pyrimidin-4-yloxy]-pyrrolidine-1-carboxylic acid tert-butyl ester], the “% stimulation at 10 μM” value is reported as 26%.

Turning to `CS(=O)(=O)c1ccc2c(c1)CCN2c1cc(OC2CCN(C(=O)OC3CCN(Cc4ccccc4F)C3)CC2)ncn1` (stereo not shown) [Compound 21-1, 4-[6-(5-Methanesulfonyl-2,3-dihydro-indol-1-yl)-pyrimidin-4-yloxy]-piperidine-1-carboxylic acid 1-(2-fluoro-benzyl)-pyrrolidin-3-yl ester], the “% stimulation at 10 μM” value amounted to 78%*.

In the case of `CS(=O)(=O)c1ccc2c(c1)CCN2c1cc(OC2CCN(C(=O)OC3CCN(Cc4c(F)cccc4F)C3)CC2)ncn1` (stereo not shown) [Compound 21-6], the “% stimulation at 10 μM” value amounted to 84%*.

Turning to `CC(C)OC(=O)N1CCC(Oc2cc(N3CCc4cc(S(C)(=O)=O)ccc43)ncc2C#N)CC1` [Compound 24-1, 4-[5-Cyano-2-(5-methanesulfonyl-2,3-dihydro-indol-1-yl)-pyridin-4-yloxy]-piperidine-1-carboxylic acid isopropyl ester], the “% stimulation at 10 μM” value was found to be 54%.
